Earlier results on one compound are cited in PMC3356383, “Efficacious Intermittent Dosing of a Novel JAK2 Inhibitor in Mouse Models of Polycythemia Vera” (PLoS ONE, 2012).

For this data set, the system named is murine model of PV. Further details: method as in PMID 18394554. Particulars: 42 days of continuous treatment; cited from earlier work.

For the compound `Cc1cnc(Nc2ccc(OCCN3CCCC3)cc2)nc1Nc1cccc(S(=O)(=O)NC(C)(C)C)c1` [TG101348], the Hematocrit reduction is on record as 18%.
